Among the test systems are P388 leukemia; P388/ADR leukemia; DLD-1 colon; HOP-18 NSCLC; M19-MEL melanoma; SNB-78 CNS; SN12K1 renal; DMS 114 small cell lung; XF 498 CNS; LXFL 529 NSCLC.
Assay in all cases: NCI tumour cell line growth inhibition, 48 h

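48-hour exposure; five concentrations; linearly interpolated endpoints. TGI: concentration producing complete growth inhibition.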

With `CCS(=O)(=O)Nc1ccc(Nc2c3ccccc3nc3ccccc23)c(OC)c1`, the TGI with P388 leukemia came out at 0.214 µM; in the experiment on P388/ADR leukemia, 1.53 µM; in the experiment with DLD-1 colon it was 17.3 µM; in the experiment with HOP-18 NSCLC, 7.92 µM; with M19-MEL melanoma, 16.6 µM; in the experiment on SNB-78 CNS it was 18.4 µM. Further, the TGI with SN12K1 renal is 4.11 µM; in the experiment on DMS 114 small cell lung, 5.53 µM; in the experiment on XF 498 CNS, 2.01 µM.
For `CCOC(=O)c1nc2ccc(Cl)cc2c2c1Cc1ccccc1-2`, the TGI with DLD-1 colon, in the experiment on HOP-18 NSCLC, with LXFL 529 NSCLC, with M19-MEL melanoma, with SNB-78 CNS and in the experiment on XF 498 CNS was greater than 100 µM throughout.
On to `COc1cc(C2C(C(=O)O)=C(CO)Oc3cc4c(cc32)OCO4)cc(OC)c1O` (stereo not drawn), for which the TGI in the experiment with DLD-1 colon, in the experiment on HOP-18 NSCLC, in the experiment with SNB-78 CNS and with DMS 114 small cell lung was greater than 100 µM throughout.
With `ONc1ncnc2nc[nH]c12`, the TGI in the experiment with DLD-1 colon, with LXFL 529 NSCLC, in the experiment with M19-MEL melanoma, in the experiment with DMS 114 small cell lung and in the experiment on XF 498 CNS was greater than 100 µM throughout.
Consider `CCCc1[nH]c(SCCCCCCCCSc2nc(-c3ccc(F)cc3)c(CCC)[nH]2)nc1-c1ccc(F)cc1`, for which the TGI in the experiment on HOP-18 NSCLC, in the experiment with LXFL 529 NSCLC, with M19-MEL melanoma, in the experiment on SNB-78 CNS and in the experiment with DMS 114 small cell lung was greater than 100 µM throughout.
For `Cc1cccc2nc3c(C(=O)NCCN(C)C)cccc3cc12`, the TGI is 11.7 µM with P388 leukemia; 11.8 µM with P388/ADR leukemia; 7.78 µM in the experiment with DLD-1 colon; 6.64 µM in the experiment on HOP-18 NSCLC; 4.42 µM with M19-MEL melanoma; 12.6 µM with SNB-78 CNS. The TGI in the experiment on SN12K1 renal amounted to 5.26 µM; with DMS 114 small cell lung it was 3.37 µM; in the experiment on XF 498 CNS, 3.24 µM.

Values taken from PubChem BioAssay (NCI).
